Data as given in patent US11548891B1, “Quaternary ammonium salts of phenanthroindolizidine and phenanthroquinolizidine alkaloids as hypoxia-targeted anticancer agents” (BATTERJEE MEDICAL COLLEGE, priority 2022, dated 2023).
Where two headings read alike, the source gives them in different places.

Key:
LogD = assay type: physicochemical
Experimental: (§1) Water solubility, log D, and PAMPA-BBB were evaluated using the protocols as described in Omran, et. al. [Omran, Z., et. al., Chem. Pharm. Bull., 2019, 67, 1208-1210, incorporated herein by reference in its entirety].

CHO-K1 = test: Cytotoxicity under normoxia (MTT), CHO-K1; assay type: cell-based, Chinese hamster
Experimental: (§2) The cytotoxicity of the compounds 5a-c and their parent alkaloids was evaluated by the 3-[4,5-dimethylthiazole-2-yl]-2,5-diphenyltetrazolium bromide (MTT) assay against 5 cancerous and 2 non-cancerous cell lines (Table 4).
(§3) The eight cell lines HEK293 (Human embryonic kidney 293), CHO-Kt (Chinese hamster ovary K1), MCF-7 cells (Human breast adenocarcinoma), HCT116 (human colorectal carcinoma), RKO (Human rectal carcinoma), SW480 (human colorectal carcinoma), H460 (Human lung cancer), and MRCS (Normal human fetal lung fibroblast), were obtained from the ATCC. The cell lines were routinely grown in alpha minimum essential medium (α-MEM) containing 5% fetal calf serum (FCS). The appropriate number of cells (HCT116=400 cells/well, H460 cells=600 cells/well) were seeded into 96-well plates under normoxic or hypoxic conditions. Cells were plated in 100 μL α-MEM containing 10% FCS, 10 mM D-Glucose and 0.2 mM 20-deoxycytidine. After incubation for 2 h, the compounds were added at the appropriate concentration and incubated for further 4 h. The cells were then washed three times with drug-free α-MEM (containing 5% FCS and pen/strep). The plates were then incubated for 5 days under normoxic conditions. The cells were stained with sulphorhodamine B to measure total cells as per the standard procedure described in Skehan, et. al. [Skehan, P., et. al., J. Natl. Cancer Inst., 1990, 82, 1107-1112, incorporated herein by reference in its entirety]. The IC50 was determined by interpolation as the compound concentration reducing staining to 50% of controls on the same plate as per the standard procedure described in Guise, et. al. [Guise, C. P., et. al., Biochem. Pharmacol., 2007, 74, 810-820, incorporated herein by reference in its entirety].

PBS (pH 7.4) solubility = assay type: physicochemical
Experimental: as §1

HCT116 [1] = test: Cytotoxicity under normoxia and hypoxia (anaerobic chamber), HCT116; assay type: cell-based, human; conditions: for IC50: 4 h exposure
Experimental: (§4) The ability of the designed prodrugs to liberate the active alkaloids in hypoxic tumors was evaluated by testing them under hypoxic conditions using an anaerobic chamber. The three prodrugs 5a-c and their parent alkaloids as well as the reference compounds PR-104A, the parent alcohol form of the phosphate pre-prodrug PR-104, and evofosfamide were tested using the HCT116 and H460 cell lines under both normoxic and hypoxic conditions (Table 5). The prodrugs were much less cytotoxic than the parent drugs, in agreement with the results using the other cell lines described above (see FIG. 6).
as §3

[2] = Mouse microsomal liver stability assay; conditions: 2 μM
Experimental: Protoc. […] Microsomal incubations were carried out in 96-well plates in 5 aliquots of 40 μL each. […] Control incubations were performed by replacing the NADPH-cofactor system with PBS. The additional control incubations in PBS (with 3.3 mM MgCl2) without added microsomes were carried out in this study. […] The incubations were performed in duplicates. Five time points over 40 min had been analyzed. The reactions were stopped by adding 12 volumes of 90% acetonitrile-water to incubation aliquots, followed by protein sedimentation by centrifuging at 5500 rpm for 3 min. The supernatants were analyzed using LC-MS as mentioned above.

MRC5 = test: Cytotoxicity under normoxia (MTT), MRC5; assay type: cell-based, human
Experimental: as §2, §3

SW480 = test: Cytotoxicity under normoxia (MTT), SW480; assay type: cell-based, human
Experimental: as §2, §3

HEK293 = test: Cytotoxicity under normoxia (MTT), HEK293; assay type: cell-based, Human
Experimental: as §2, §3

H460 = test: Cytotoxicity under normoxia and hypoxia (anaerobic chamber), H460; assay type: cell-based, Human; conditions: for IC50: 4 h exposure
Experimental: as §4, §3

MCF7 = test: Cytotoxicity under normoxia (MTT), MCF7; assay type: cell-based, Human
Experimental: as §2, §3

HCT116 [3] = test: Cytotoxicity under normoxia (MTT), HCT116; assay type: cell-based, human
Experimental: as §2, §3

RKO = test: Cytotoxicity under normoxia (MTT), RKO; assay type: cell-based, Human; conditions: read-out: IC50 RKO
Experimental: as §2, §3

[4] = BBB-Parallel Artificial Membrane Permeability Assay (BBB-PAMPA); assay type: in vitro ADME
Experimental: The physicochemical properties of the new compounds were evaluated (Table 1). […] Consequently, these derivatives lost their BBB penetrability, as predicted by the BBB-Parallel Artificial Membrane Permeability Assay (BBB-PAMPA), whereas their parent alkaloids had free passage through the BBB.
as §1

[5] = normoxia, read-out: IC50 CHO-K1
[6] = HTC 116, hypoxia, read-out: IC50 (Hypoxia)
[7] = HTC 116, normoxia, read-out: IC50 (Normoxia)
[8] = mouse hepatic microsomes, 37° C.
[9] = normoxia, read-out: IC50 HEK293
[10] = H460, hypoxia, read-out: IC50 (Hypoxia)
[11] = H460, normoxia, read-out: IC50 (Normoxia)
[12] = normoxia, read-out: IC50 HCT116
[13] = Cricetulus griseus, CHO-K1, read-out: IC50 CHO-K1
[14] = Homo sapiens, HCT-116, HTC 116, hypoxia, read-out: IC50 (Hypoxia)
[15] = Homo sapiens, HCT-116, HTC 116, normoxia, read-out: IC50 (Normoxia)
[16] = Homo sapiens, MRC5, read-out: IC50 MRC5
[17] = Homo sapiens, SW480, read-out: IC50 SW480
[18] = Homo sapiens, HEK293, read-out: IC50 HEK293
[19] = Homo sapiens, NCI-H460, H460, hypoxia, read-out: IC50 (Hypoxia)
[20] = Homo sapiens, NCI-H460, H460, normoxia, read-out: IC50 (Normoxia)
[21] = Homo sapiens, MCF7, read-out: IC50 MCF7
[22] = Homo sapiens, HCT-116, read-out: IC50 HCT116

Compound	LogD Mean ± SE (LogD)	PBS (pH 7.4) Solubility μM Mean ± SE (PBS (pH 7.4) solubility)	HCR (Hypoxia Cytotoxicity Ratio = normoxic IC50/hypoxic IC50) (HCT116 [1]; HTC 116)	IC50 (HCT116 [1]; [6])	IC50 (HCT116 [1]; [7])	HCR (Hypoxia Cytotoxicity Ratio = normoxic IC50/hypoxic IC50) (H460; H460)	IC50 (H460; [10])	IC50 (H460; [11])	Permeability (Papp) Log [10^−6 cm/s] Mean ± SE [4]	IC50 (HCT116 [1]; [14])	IC50 (HCT116 [1]; [15])	IC50 (H460; [19])	IC50 (H460; [20])	other results
COc1ccc2c3c(c4cc(OC)c(OC)cc4c2c1)C[C@H]1CCCN1C3 [(R)-Antofine, (R)-antofine]	3.68 ± 0.03	27 ± 2 μM	0.4	16.7 nM	23.9 nM	0.6	25.4 nM	29.2 nM	−5.6 ± 0.58 Log [10^−6 cm/s]					IC50 (CHO-K1; [5]): 33 ± 50 nM; Kel, min^−1 (elimination rate constant) [2, 8]: 0.002 ± 0 min⁻¹; t1/2, min [2, 8]: 1.12 ± 0.035 h; IC50 (MRC5; normoxia, read-out: IC50 MRC5): 6 ± 2 nM; IC50 (SW480; normoxia, read-out: IC50 SW480): 9 ± 2 nM; IC50 (HEK293; [9]): 340 ± 43 nM; IC50 (MCF7; normoxia, read-out: IC50 MCF7): 2 nM; IC50 (HCT116 [3]; [12]): 2 nM; IC50 (RKO; normoxia): 2 nM
COc1cc2c3c(c4cc(OC)c(OC)cc4c2cc1OC)CN1CCC[C@@H]1C3 [(R)-Tylophorine]			0.6	56.4 nM	1710 nM	1.1	161 nM	175 nM						IC50 (MRC5; normoxia, read-out: IC50 MRC5): 95 ± 6 nM; IC50 (SW480; normoxia, read-out: IC50 SW480): 1150 ± 244 nM; IC50 (MCF7; normoxia, read-out: IC50 MCF7): 101 ± 88 nM; IC50 (HCT116 [3]; [12]): 440 ± 36 nM; IC50 (RKO; normoxia): 338 ± 61 nM
COc1cc2c3c(c4cc(OC)c(OC)cc4c2cc1OC)CN1CCC[C@H]1C3 [(S)-Tylophorine]	3.14 ± 0.02	2 ± 0 μM	0.5	50.1 nM	35.1 nM	1.1	102 nM	108 nM	−5.4 ± 0.17 Log [10^−6 cm/s]					IC50 (CHO-K1; [5]): 35 ± 42 nM; Kel, min^−1 (elimination rate constant) [2, 8]: 0.005 ± 0 min⁻¹; t1/2, min [2, 8]: 2.125 ± 0.05 h; IC50 (MRC5; normoxia, read-out: IC50 MRC5): 27 ± 2 nM; IC50 (SW480; normoxia, read-out: IC50 SW480): 69 ± 20 nM; IC50 (HEK293; [9]): 16 ± 26 nM; IC50 (MCF7; normoxia, read-out: IC50 MCF7): 62 ± 13 nM; IC50 (HCT116 [3]; [12]): 85 ± 6 nM; IC50 (RKO; normoxia): 202 ± 3 nM
CN(C)CCCN1c2ccccc2Sc2ccc(Cl)cc21 [Chlorpromazine]									−5.4 ± 0.13 Log [10^−6 cm/s]					
CN1CCN(C2=Nc3cc(Cl)ccc3Nc3ccccc32)CC1 [Clozapine]									−5.1 ± 0.12 Log [10^−6 cm/s]					
COc1ccc2c3c(c4cc(OC)c(OC)cc4c2c1)C[C@H]1CCC[N+]1(Cc1c([N+](=O)[O-])ncn1C)C3.[Br-] (stereo partly drawn) [Compound 5a, (13aR)-2,3,6-trimethoxy-10-((1-methyl-4-nitro-1H-imidazol-5-yl)methyl)-10,11,12,13,13a, 14-hexahydro-9H-dibenzo[f,h]pyrrolo[1,2-b]isoquinolin-10-ium bromide]	0.69 ± 0.01	154 ± 0 μM							<−7 Log [10^−6 cm/s]	425 nM	16500 nM	618 nM	15800 nM	IC50 (CHO-K1; [13]): 1680 ± 542 nM; IC50 (MRC5; [16]): 327 ± 147 nM; IC50 (SW480; [17]): 1350 ± 0.126 nM; IC50 (HEK293; [18]): 5080 ± 519 nM; IC50 (MCF7; [21]): 1530 ± 144 nM; IC50 (HCT116 [3]; [22]): 1040 ± 21 nM; IC50 (RKO; Homo sapiens, RKO): 2030 ± 267 nM
COc1cc2c3c(c4cc(OC)c(OC)cc4c2cc1OC)C[N+]1(Cc2c([N+](=O)[O-])ncn2C)CCC[C@H]1C3.[Br-] (stereo partly drawn) [Compound 5b, (13aS)-2,3,6,7-tetramethoxy-10-((1-methyl-4-nitro-1H-imidazol-5-yl)methyl)-10,11,12,13,13a, 14-hexahydro-9H-dibenzo[f,h]pyrrolo[1,2-b]isoquinolin-10-ium bromide]	0.38 ± 0.04	162 ± 3 μM							<−7 Log [10^−6 cm/s]	1460 nM	4490 nM	3220 nM	77600 nM	IC50 (CHO-K1; [13]): 3490 ± 843 nM; HCR (Hypoxia Cytotoxicity Ratio = normoxic IC50/hypoxic IC50) (HCT116 [1]): 11.3; DR (Deactivation Ratio = IC50 (prodrug)/IC50 (parent drug)) (HCT116 [1]; HTC 116, normoxia): 689; Kel, min^−1 (elimination rate constant) ([2]; male, Balb/c, mouse, pH 7.4): 0.002 ± 0 min⁻¹; compound metabolized into the parent drug ([2]; male, Balb/c, mouse, microsomes, pH 7.4): less than 1%; IC50 (MRC5; [16]): 3310 ± 163 nM; IC50 (SW480; [17]): 7240 ± 490 nM; IC50 (HEK293; [18]): 950 ± 174 nM; HCR (Hypoxia Cytotoxicity Ratio = normoxic IC50/hypoxic IC50) (H460): 24; DR (Deactivation Ratio = IC50 (prodrug)/IC50 (parent drug)) (H460; H460, normoxia): 719; IC50 (MCF7; [21]): 1500 ± 128 nM; IC50 (HCT116 [3]; [22]): 3300 ± 1560 nM; IC50 (RKO; Homo sapiens, RKO): 4060 ± 181 nM; melting point: 165 to 167 °C
COc1cc2c3c(c4cc(OC)c(OC)cc4c2cc1OC)C[N+]1(Cc2c([N+](=O)[O-])ncn2C)CCC[C@@H]1C3.[Br-] (stereo partly drawn) [Compound 5c, (13aR)-2,3,6,7-tetramethoxy-10-((1-methyl-4-nitro-1H-imidazol-5-yl)methyl)-10,11,12,13,13a, 14-hexahydro-9H-dibenzo[f,h]pyrrolo[1,2-b]isoquinolin-10-ium bromide]										3020 nM	9060 nM	6500 nM	51000 nM	HCR (Hypoxia Cytotoxicity Ratio = normoxic IC50/hypoxic IC50) (HCT116 [1]): 1.5; DR (Deactivation Ratio = IC50 (prodrug)/IC50 (parent drug)) (HCT116 [1]; HTC 116, normoxia): 128; IC50 (MRC5; [16]): 3940 ± 127 nM; IC50 (SW480; [17]): 9860 ± 1690 nM; HCR (Hypoxia Cytotoxicity Ratio = normoxic IC50/hypoxic IC50) (H460): 7.8; DR (Deactivation Ratio = IC50 (prodrug)/IC50 (parent drug)) (H460; H460, normoxia): 293; IC50 (MCF7; [21]): 8050 ± 343 nM; IC50 (HCT116 [3]; [22]): 9020 ± 1130 nM; IC50 (RKO; Homo sapiens, RKO): 8820 ± 3080 nM; melting point: 185 to 187 °C
Cn1c(COP(=O)(NCCBr)NCCBr)cnc1[N+](=O)[O-] [Evofosfamide, evofosfamide]			85			251				20.1 nM	23.9 nM	17.2 nM	4320 nM	
COC(=O)Nc1nc2ccc(C(=O)c3ccccc3)cc2[nH]1 [Mebendazole]	3.26 ± 0.01													
Cc1nccn1CC1CCc2c(c3ccccc3n2C)C1=O (centres unmarked) [Ondansetron]		96 ± 3 μM												
CS(=O)(=O)OCCN(CCBr)c1c(C(=O)NCCO)cc([N+](=O)[O-])cc1[N+](=O)[O-] [PR-104A]			10.5	861 nM	16500 nM	2.5	533 nM	1340 nM						
CNC(=C[N+](=O)[O-])NCCSCc1ccc(CN(C)C)o1 [Ranitidine]									<−7 Log [10^−6 cm/s]					
